Patent publication US20240358984A1, “Ultrasound delivery” (ACT Therapeutics Ltd, priority 2021, published 2024)

Tested on: subcutaneous prostate cancer model (PC3)
Assay: Tumour specific uptake of Evans Blue after ACT
Format: in vivo, mice
Conditions: Enhancement 0.5 MHz, MI 0 to 0.4, 30 min after treatment
Method: To investigate the effect of MI variance of the US Enhancement field, tumour specific uptake of Evans Blue (EB, fluorescent dye) has been investigated in a subcutaneous prostate cancer model (PC3) in mice. Five groups with Enhancement insonation MIs of 0, 0.1, 0.2, 0.3 and 0.4 were investigated (N=3 animals per group). […] 30 min after treatment, the tumors were excised and the amount of EB was measured by spectrophotometry at 620 nm.

## Cc1cc(-c2ccc(/N=N/c3ccc4c(S(=O)(=O)O)cc(S(=O)(=O)O)c(N)c4c3O)c(C)c2)ccc1/N=N/c1ccc2c(S(=O)(=O)O)cc(S(=O)(=O)O)c(N)c2c1O [Evans Blue]
  tumour tissue uptake as function of Enhancement MI: increases from no US (MI=0) to MI=0.1 and further with MI=0.2, but then drops again with MI=0.3 and further with M=0.4
